Source: PubChem BioAssay (NCI)
Several values for one entry are separate records, joined by “and”; a condition that tells them apart may be missing. Identical values can stand only once.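 A five-concentration, 48-hour dose response in 96-well plates underlies each endpoint, interpolated linearly between surrounding concentrations. GI50 marks 50% less growth. TGI is the concentration that stops growth completely.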

What was measured:
Assay in all cases: DTP human tumour cell line panel, 48 h
[1] = tested on: A498 renal
[2] = tested on: ACHN renal
[3] = tested on: EKVX NSCLC
[4] = tested on: K-562 leukemia
[5] = tested on: KM12 colon
[6] = tested on: SF-268 CNS
[7] = tested on: SF-295 CNS
[8] = tested on: SK-MEL-2 melanoma
[9] = tested on: SNB-75 CNS
[10] = tested on: UACC-62 melanoma

## CCN(CC)c1ccc2nc3ccc(=[N+](CC)CC)cc-3oc2c1
[1]
  GI50: 1.01 µM
  TGI: 17.5 µM
[2]
  GI50: 1.56 µM
  TGI: 59.8 µM
[3]
  GI50: 0.292 µM
  TGI: > 40.7 µM
[4]
  GI50: 0.174 µM
  TGI: > 100 µM
[5]
  GI50: 0.122 µM
  TGI: 8.13 µM
[6]
  GI50: 0.184 µM
  TGI: 31.2 µM
[7]
  GI50: 0.28 µM
[8]
  GI50: 1.36 µM
  TGI: 3.99 µM
[9]
  GI50: 1.31 µM
  TGI: 6.85 µM
[10]
  GI50: 0.756 µM
  TGI: 4.33 µM

## CC(=O)O[C@H]1CC2C(C3CC[C@H](C(C)CCC(=O)O)[C@]31C)[C@H](OC(C)=O)C[C@@H]1CC3(CC[C@]21C)OOC1(CCC(C)CC1)OO3 (stereo not given in full)
[1]
  TGI: 28.6 µM and 29.8 µM
[2]
  TGI: 15.8 µM and 9.72 µM
[3]
  TGI: 4.9 µM and 2.9 µM
[4]
  TGI: 16.8 µM and 6.21 µM
[5]
  GI50: 5.73 µM and 2.31 µM
  TGI: 19.4 µM and 6.98 µM
[6]
  GI50: 6.18 µM and 2.11 µM
  TGI: 22.7 µM and 5.2 µM
[7]
  GI50: 7.46 µM and 2.25 µM
  TGI: 19.8 µM and 5.53 µM
[8]
  GI50: 10.7 µM and 2.02 µM
  TGI: 27.2 µM and 5 µM
[9]
  TGI: 6.81 µM

## Nc1nc(=S)c2c(ncn2CCO)[nH]1
[1]
  TGI: > 100 µM
[2]
  TGI: > 100 µM
[3]
  TGI: > 100 µM
[4]
  TGI: > 100 µM
[5]
  TGI: > 100 µM
[6]
  TGI: > 100 µM
[7]
  TGI: > 100 µM
[8]
  TGI: > 100 µM
[9]
  TGI: > 100 µM
[10]
  TGI: > 100 µM

## CCOC(=O)C1=C(NC)OCC1=O
[1]
  TGI: > 100 µM
[2]
  TGI: > 100 µM
[3]
  TGI: > 100 µM
[4]
  TGI: > 100 µM
[5]
  TGI: > 100 µM
[6]
  TGI: > 100 µM
[7]
  TGI: > 100 µM
[8]
  TGI: > 100 µM
[9]
  TGI: > 100 µM
[10]
  TGI: > 100 µM

## CCOC(=O)/C(=C\c1cccc(C)c1)C(C)=O
[1]
  TGI: 52 µM
[2]
  TGI: 66 µM
[3]
  TGI: > 100 µM
[4]
  TGI: > 100 µM
[5]
  TGI: 32.9 µM
[6]
  TGI: 45.4 µM
[7]
  TGI: 55.8 µM
[8]
  TGI: 26.1 µM
[9]
  TGI: 25.2 µM
[10]
  TGI: 31.7 µM

## O=C(COc1ccc(/C=C2\Oc3ccccc3C2=O)cc1)Nc1nc2ccccc2s1
[1]
  GI50: 37.1 µM
  TGI: 94.5 µM
[2]
  GI50: 28.9 µM
  TGI: > 100 µM
[3]
  GI50: 26.5 µM
  TGI: > 100 µM
[4]
  GI50: 16.7 µM
  TGI: > 100 µM
[5]
  GI50: 2.09 µM
  TGI: > 100 µM
[7]
  GI50: 28.7 µM
  TGI: > 75.3 µM
[8]
  GI50: 14.6 µM
  TGI: > 68.6 µM
[9]
  GI50: 1.99 µM
  TGI: > 45.5 µM
[10]
  GI50: 42 µM
  TGI: > 100 µM

## c1ccc(C(c2ccccc2)c2ccccn2)cc1
[1]
  TGI: > 100 µM
[2]
  TGI: > 100 µM
[3]
  TGI: > 100 µM
[4]
  TGI: > 100 µM
[5]
  TGI: > 100 µM
[6]
  TGI: > 100 µM
[7]
  TGI: > 100 µM
[8]
  TGI: > 100 µM
[9]
  TGI: > 100 µM
[10]
  TGI: > 100 µM

## NC(N)=NCCCC(NCc1c2ccccc2nc2ccccc12)C(=O)O (stereo not given)
[1]
  TGI: > 100 µM
[2]
  TGI: > 100 µM
[3]
  TGI: > 100 µM
[4]
  TGI: > 89.4 µM
[5]
  TGI: > 100 µM
[6]
  TGI: > 100 µM
[7]
  TGI: > 100 µM
[8]
  TGI: > 100 µM
[9]
  TGI: > 100 µM
[10]
  TGI: > 100 µM

## CC(=O)NC1C(O[C@H]2C[C@H]3[C@@H]4CC=C5C[C@@H](O)CC[C@]5(C)[C@H]4CC[C@]3(C)[C@H]2[C@H](C)C(=O)CCC(C)C)OCC(O)C1O (stereo not given in full)
[1]
  GI50: 0.977 µM
  TGI: 2.88 µM
[2]
  GI50: 3.75 µM
  TGI: > 42.5 µM
[3]
  GI50: 1.97 µM
  TGI: 9.37 µM
[4]
  GI50: 1.35 µM
  TGI: 5.16 µM
[5]
  GI50: 6.27 µM
  TGI: > 42.5 µM
[6]
  GI50: 2.31 µM
  TGI: 11.2 µM
[7]
  GI50: 0.5 µM
  TGI: 1.23 µM
[8]
  GI50: 1.35 µM
  TGI: 4.11 µM
[9]
  GI50: 0.909 µM
  TGI: 10.9 µM
[10]
  GI50: 0.913 µM
  TGI: 2.21 µM

## Cn1c(=O)c2nc3sc4c(n3c2n(C)c1=O)C(=O)c1ccccc1C4=O
[1]
  TGI: > 100 µM
[2]
  TGI: > 54.7 µM
[3]
  TGI: > 100 µM
[4]
  TGI: > 100 µM
[5]
  TGI: > 100 µM
[6]
  TGI: > 100 µM
[7]
  TGI: > 100 µM
[8]
  TGI: > 75.7 µM
[9]
  TGI: 72.1 µM
[10]
  TGI: > 100 µM

## O=C1NC(=O)C2C(=O)NC(=O)C1C2Cc1ccco1 (stereo not given)
[1]
  TGI: > 100 µM
[2]
  TGI: > 100 µM
[3]
  TGI: > 100 µM
[4]
  TGI: > 100 µM
[5]
  TGI: > 100 µM
[6]
  TGI: > 100 µM
[7]
  TGI: > 100 µM
[8]
  TGI: > 100 µM
[9]
  TGI: > 100 µM
[10]
  TGI: > 100 µM

## CSc1nc2nc(-c3ccccc3)c(C)c-2c2n1C(C)C(=O)N2 (stereo not given)
[1]
  GI50: 32.2 µM
  TGI: > 100 µM
[2]
  GI50: 38.1 µM
  TGI: > 100 µM
[3]
  GI50: 65.7 µM
  TGI: > 100 µM
[4]
  GI50: 41.5 µM
  TGI: > 100 µM
[5]
  GI50: 47.7 µM
  TGI: > 100 µM
[6]
  GI50: 34.2 µM
  TGI: > 100 µM
[7]
  GI50: 24 µM
  TGI: > 100 µM
[8]
  GI50: 30.1 µM
  TGI: 78.1 µM
[9]
  GI50: 43.2 µM
  TGI: > 100 µM
[10]
  GI50: 18.6 µM
  TGI: 45.2 µM

## Nc1nc(=S)c2ncn(C3OC(COP(=O)(O)O)C(O)C3O)c2[nH]1 (stereo not given)
[1]
  GI50: 0.631 µM
  TGI: 9.24 µM
[2]
  GI50: 1.99 µM
  TGI: > 100 µM
[3]
  GI50: 2.34 µM
  TGI: > 100 µM
[4]
  GI50: 0.965 µM
  TGI: > 100 µM
[5]
  GI50: 3.02 µM
  TGI: > 100 µM
[6]
  GI50: 2.11 µM
  TGI: > 100 µM
[7]
  GI50: 0.378 µM
  TGI: > 100 µM
[8]
  GI50: 3.89 µM
  TGI: > 100 µM
[9]
  GI50: 0.96 µM
  TGI: > 100 µM
[10]
  GI50: 0.539 µM
  TGI: 6.14 µM

## CC(C)Cc1ccc(C(C)/C=C2\CCC(CN(C)C)C2=O)cc1 (stereo not given)
[1]
  TGI: 39.5 µM
[2]
  TGI: 38.1 µM
[3]
  TGI: 40.2 µM
[4]
  TGI: 8.04 µM
[5]
  TGI: 18.2 µM
[6]
  TGI: 25.5 µM
[7]
  TGI: 28.6 µM
[8]
  TGI: 28.6 µM
[9]
  TGI: 30.8 µM
[10]
  TGI: 33.8 µM

## N#CC1CC(c2ccccc2)Nc2cc(Cl)ccc2N1 (stereo not given)
[1]
  TGI: > 100 µM
[2]
  TGI: > 100 µM
[3]
  TGI: > 100 µM
[4]
  TGI: > 100 µM
[5]
  TGI: > 100 µM
[6]
  TGI: > 100 µM
[7]
  TGI: > 100 µM
[8]
  TGI: > 89.2 µM
[9]
  TGI: > 100 µM
[10]
  TGI: > 100 µM

## CC(=O)Oc1ccc(C2=Cc3ccc(OC(C)=O)cc3OC2C)cc1 (stereo not given)
[1]
  GI50: 2.25 µM
  TGI: 7.95 µM
[2]
  GI50: 2.29 µM
  TGI: > 100 µM
[3]
  GI50: 2.38 µM
  TGI: 13.5 µM
[4]
  GI50: 3.05 µM
  TGI: > 100 µM
[5]
  GI50: 5.97 µM
  TGI: 23.2 µM
[6]
  GI50: 3.44 µM
  TGI: 30.6 µM
[7]
  GI50: 2 µM
  TGI: 4.25 µM
[8]
  GI50: 23.4 µM
  TGI: 78.5 µM
[9]
  GI50: 3.48 µM
  TGI: 29.7 µM
[10]
  GI50: 4.61 µM
  TGI: 25.1 µM
